{
  "source": "ChEMBL document CHEMBL4308823",
  "about": "“Small Molecule Mitochondrial Uncouplers and Their Therapeutic Potential” (J Med Chem, 2018)",
  "key": {"[1]": {"system": "Mus musculus", "experiment": "Antiobesity activity in high fat diet-induced obese C57BL/6 mouse assessed as reduction in body weight at 50 umol/kg/day for 16 days relative to control", "format": "functional", "design": "scale not given: the % may be the effect or the level left"}, "[2]": {"system": "Mus musculus", "experiment": "Antiobesity activity in high fat diet-induced obese C57BL/6 mouse assessed as reduction in fat mass at 50 umol/kg/day for 16 days relative to control", "format": "functional", "design": "scale not given: the % may be the effect or the level left"}, "[3]": {"experiment": "Toxicity in rat", "settings": "in vivo"}, "[4]": {"experiment": "Dissociation constant, pKa of compound"}, "[5]": {"experiment": "Mitochondrial uncoupling activity in Arabidopsis root cells assessed as inhibition of clathrin-mediated endocytosis by measuring reduction of FM4-64 uptake", "format": "functional, mitochondria, Arabidopsis thaliana, Mitochondria"}, "[6]": {"system": "Mus musculus", "experiment": "Anorectic activity in C57Bl/6J mouse assessed as reduction in fat mass at 30 umol/kg for 6 consecutive days relative to control", "format": "functional", "design": "scale not given: the % may be the effect or the level left"}, "[7]": {"system": "Mus musculus", "experiment": "Anorectic activity in C57Bl/6J mouse assessed as reduction in body weight at 30 umol/kg for 6 consecutive days relative to control", "format": "functional", "design": "scale not given: the % may be the effect or the level left"}, "[8]": {"experiment": "Uncoupling activity in rat mitochondria assessed as increase in oxygen consumption by mitochondrial respiration assay", "format": "functional"}, "[9]": {"system": "Mus musculus", "experiment": "Antiobesity activity in high fat diet-induced obese C57BL/6J mouse assessed as reduction in body fat mass at 5 mg/kg, po administered via gavage treated 3 times per week for 6 weeks relative to control", "format": "functional", "design": "scale not given: the % may be the effect or the level left"}, "[10]": {"system": "HL-60", "experiment": "Cytotoxicity against human HL60 cells after 24 to 48 hrs by MTT assay", "format": "cell-based"}, "[11]": {"system": "Mus musculus", "experiment": "Antiobesity activity in high fat diet-induced obese C57BL/6J mouse assessed as reduction in body weight at 5 mg/kg, po administered via gavage treated 3 times per week for 6 weeks relative to control", "format": "functional", "design": "scale not given: the % may be the effect or the level left"}, "[12]": {"experiment": "Acute toxicity in C57BL/6J mouse administered via oral gavage", "settings": "in vivo"}, "[13]": {"system": "C2C12", "experiment": "Cytotoxicity against mouse C2C12 cells after overnight incubation", "format": "cell-based"}, "[14]": {"experiment": "Toxicity in po dosed rat", "format": "organism-based", "settings": "in vivo"}, "[15]": {"experiment": "in vivo", "settings": "mouse"}, "[16]": {"system": "Liver", "experiment": "Mitochondrial uncoupling activity in mouse liver mitochondria assessed as effect on succinoxldase coupled phosphorylation", "format": "functional"}, "[17]": {"experiment": "Toxicity in human assessed as weight loss"}, "[18]": {"experiment": "Toxicity in dog", "design": "species or system Canis lupus familiaris", "settings": "in vivo"}, "[19]": {"system": "143B", "experiment": "Cytotoxicity against human 143B cells after 24 hrs by LDH release assay", "format": "cell-based"}, "[20]": {"experiment": "Acute toxicity in po dosed mouse", "format": "organism-based", "settings": "in vivo"}, "[21]": {"system": "HCT-116", "experiment": "Cytotoxicity against human HCT116 cells after 48 hrs by MTT assay", "format": "cell-based", "settings": "HCT-116, 48 h"}, "[22]": {"system": "Hepatocyte", "experiment": "Cytotoxicity against Sprague-Dawley rat hepatocytes after 24 hrs by MTT assay", "format": "cell-based"}},
  "data": [
    {"compound": "CCCCCCCCCCCC[P+](c1ccccc1)(c1ccccc1)c1ccccc1", "values": [
      {"measurement": "Activity", "setting": "[1]", "result": 12, "unit": "%"},
      {"measurement": "Activity", "setting": "[2]", "result": 24, "unit": "%"}
    ]},
    {"compound": "NCCO.O=C(Nc1ccc([N+](=O)[O-])cc1Cl)c1cc(Cl)ccc1O", "values": [
      {"measurement": "LD50", "setting": "[3]", "result": 500, "unit": "mg/kg"}
    ]},
    {"compound": "CC(C)(C)c1cc(Cl)cc(C(=O)Nc2ccc([N+](=O)[O-])cc2Cl)c1O", "values": [
      {"measurement": "pKa", "setting": "[4]", "result": 5.8}
    ]},
    {"compound": "O=[N+]([O-])c1ccc(NS(=O)(=O)c2ccc(Br)s2)cc1", "values": [
      {"measurement": "IC50", "setting": "[5]", "result": 5000, "unit": "nM"}
    ]},
    {"compound": "CCCCOC(=O)c1ccccc1-c1c2cc(C)/c(=N\\CC)cc-2oc2cc(NCC)c(C)cc12", "values": [
      {"measurement": "Activity", "setting": "[6]", "result": 20, "unit": "%"},
      {"measurement": "pKa", "setting": "[4]", "result": 7.3},
      {"measurement": "Activity", "setting": "[7]", "result": 19, "unit": "%"},
      {"measurement": "EC50", "setting": "[8]", "result": 1000, "unit": "nM"}
    ]},
    {"compound": "O=C(Nc1cc(Cl)cc(Cl)c1)Nc1cc(Cl)cc(Cl)c1", "values": [
      {"measurement": "Activity", "setting": "[9]", "result": 35, "unit": "%"},
      {"measurement": "Activity", "setting": "[10]", "result": "> 25", "unit": "µM"},
      {"measurement": "Activity", "setting": "[11]", "result": 16, "unit": "%"}
    ]},
    {"compound": "CCOC(=O)C1=C(C)N=c2s/c(=C/c3cc(Br)c(O)c(Br)c3)c(=O)n2C1c1ccc(Cl)cc1", "note": "(configuration not stated)", "values": [
      {"measurement": "LD50", "setting": "[12]", "result": 12.7, "unit": "mg/kg"}
    ]},
    {"compound": "O=[N+]([O-])c1ccc(OCc2ccc(OCCCC[P+](c3ccccc3)(c3ccccc3)c3ccccc3)cc2[N+](=O)[O-])c([N+](=O)[O-])c1", "values": [
      {"measurement": "Activity", "setting": "[13]", "result": "> 5", "unit": "µM"}
    ]},
    {"compound": "FC(F)(F)c1nc2c(Cl)c(Cl)c(Cl)c(Cl)c2[nH]1", "values": [
      {"measurement": "LD50", "setting": "[14]", "result": 1.6, "unit": "mg/kg"},
      {"measurement": "pKa", "setting": "[4]", "result": "5.04 to 5.6"}
    ]},
    {"compound": "O=[N+]([O-])c1cc(CCC[P+](c2ccccc2)(c2ccccc2)c2ccccc2)cc([N+](=O)[O-])c1O", "values": [
      {"measurement": "pKa", "setting": "[4]", "result": 4.48}
    ]},
    {"compound": "N#CC(C#N)=NNc1ccc(OC(F)(F)F)cc1", "values": [
      {"measurement": "pKa", "setting": "[4]", "result": 6.2},
      {"measurement": "LD50", "setting": "[15]", "result": 8, "unit": "mg/kg"},
      {"measurement": "EC50", "setting": "[16]", "result": 40, "unit": "nM"}
    ]},
    {"compound": "O=[N+]([O-])c1ccc(O)c([N+](=O)[O-])c1", "note": "[2,4-DINITROPHENOL]", "values": [
      {"measurement": "LD", "setting": "[17]", "result": "0.8 to 3", "unit": "g"},
      {"measurement": "LD50", "setting": "[14]", "result": 30, "unit": "mg/kg"},
      {"measurement": "pKa", "setting": "[4]", "result": 4.1},
      {"measurement": "LD50", "setting": "[18]", "result": 30, "unit": "mg/kg"}
    ]},
    {"compound": "CCCCN1CCCCC1C(=O)Nc1c(C)cccc1C", "note": "(configuration not stated) [BUPIVACAINE]", "values": [
      {"measurement": "pKa", "setting": "[4]", "result": 8.1},
      {"measurement": "LD50", "setting": "[3]", "result": "4.25 to 12.7", "unit": "mg/kg"}
    ]},
    {"compound": "N#CC(C#N)=NNc1cccc(Cl)c1", "note": "[CARBONYL CYANIDE M-CHLOROPHENYLHYDRAZONE]", "values": [
      {"measurement": "EC50", "setting": "[16]", "result": 100, "unit": "nM"}
    ]},
    {"compound": "COC1=C(OC)C(=O)C(CCCCCCCCCC[P+](c2ccccc2)(c2ccccc2)c2ccccc2)=C(C)C1=O", "note": "[MITOQUINONE CATION]", "values": [
      {"measurement": "Activity", "setting": "[19]", "result": "> 10", "unit": "µM"}
    ]},
    {"compound": "CC(C)(C)c1cc(C=C(C#N)C#N)cc(C(C)(C)C)c1O", "note": "[TYRPHOSTIN A9]", "values": [
      {"measurement": "LD50", "setting": "[20]", "result": 29, "unit": "mg/kg"},
      {"measurement": "IC50", "setting": "[21]", "result": "> 200", "unit": "nM"},
      {"measurement": "pKa", "setting": "[4]", "result": 6.7},
      {"measurement": "IC50", "setting": "[22]", "result": "> 970", "unit": "nM"}
    ]}
  ]
}
